According to patent US9750677B2, “Use of metal complexes which are mimetics of SOD as food agents and as cosmetics” (Universitat de València, priority 2014, dated 2017):
Where “and” joins values, the source holds several entries; their conditions need not be identical. Identical values can stand only once.

Tested on: Medaka embryos
Test: Survival analysis using Medaka fish embryos, mortality at 72 hours in H2O2
Type: in vivo, Medaka (Oryzias latipes)
Details: stage 8 embryos pre-treated 4 days with 100 μM vitamin C, then 72 hours in 22.5 mM H2O2; for mortality, mean (± standard error in text): 6 replicates
Procedure: Individual adults (strain Cab, Carolina Biological Supply, (North Carolina)), were held in tanks with continuous water flow at 27° C., and a photoperiod of 14 hours of light and 10 hours of darkness. The fish were fed twice a day with Artemia nauplii, which were hatched daily from commercial Sanders® cysts, and with dry food once per day.
Fertilized eggs were collected daily, deposited in Yamamoto solution (0.13 M NaCl, 2.7 mM KCl, 1.8 mM CaCl2 and 0.24 mM NaHCO3, pH 7.3) (Yamamoto T., Medaka (killifish): Biology and strains. 1975, Tokyo: Keigaku Pub. Co), and were kept in the incubator at 26° C. The embryo stage was determined according to the description of Iwamatsu (Iwamatsu T., Stages of normal development in the medaka Oryzias latipes. Mech Dev. 2004, Vol. 121, pages 605-618).
Medaka embryos that were in stage 8 (early morula stage, Iwamatsu, 2004) were separated into 2 groups of 60 embryos and one group of 30 embryos. A group of 60 embryos were treated for 4 days with Pytren-4Q+Mn dissolved in Yamamoto solution at a concentration of 250 μM. The other group of 60 embryos were incubated for 4 days in Yamamoto solution. This group was used as a negative control. The group of 30 embryos, positive control group, were treated for 4 days with a Yamamoto solution of vitamin C, an antioxidant compound, at a concentration of 100 μM. After 4 days of incubation, the embryos were washed with Yamamoto solution. The groups of 60 embryos were separated one by one into two groups of 30 embryos. The embryos of all the groups were individually placed into the wells of 96-well plates, each well containing 200 μl of Yamamoto solution with H2O2, at different concentrations depending on the extension of incubation time at which mortality was observed. […] Thirty embryos of each initial group of 60 embryos and the 30 embryos of the group treated with vitamin C were treated with H2O2 Yamamoto solution at a concentration of 22.5 mM. […] Thirty embryos of each initial group of 60 embryos were treated with H2O2 Yamamoto solution at a concentration of 7.5 mM. […]

Compound: O=C1O[C@H]([C@@H](O)CO)C(O)=C1O [vitamin C]
- mortality, mean (± standard error in text): 25.99±5.25%
- mortality, mean (± standard error in text) (listed as Vitamin C): 25.99%
- mortality, single replicates (30 embryos per replicate): 14.3% and 20.8% (2×) and 40.63% and 43.75% and 15.63%
